Results taken from ChEMBL document CHEMBL2074131, “Inhibition of P-glycoprotein function by XR9576 in a solid tumour model can restore anticancer drug efficacy” (Eur J Cancer, 2004).

Target: ATP-dependent translocase ABCB1 (Homo sapiens, UniProt P08183)
Test: TP_TRANSPORTER: drug resistance (vinblastine) in NCI/ADRRes cells
Format: functional, cell-based

Sequence of ATP-dependent translocase ABCB1 (P08183 whole entry): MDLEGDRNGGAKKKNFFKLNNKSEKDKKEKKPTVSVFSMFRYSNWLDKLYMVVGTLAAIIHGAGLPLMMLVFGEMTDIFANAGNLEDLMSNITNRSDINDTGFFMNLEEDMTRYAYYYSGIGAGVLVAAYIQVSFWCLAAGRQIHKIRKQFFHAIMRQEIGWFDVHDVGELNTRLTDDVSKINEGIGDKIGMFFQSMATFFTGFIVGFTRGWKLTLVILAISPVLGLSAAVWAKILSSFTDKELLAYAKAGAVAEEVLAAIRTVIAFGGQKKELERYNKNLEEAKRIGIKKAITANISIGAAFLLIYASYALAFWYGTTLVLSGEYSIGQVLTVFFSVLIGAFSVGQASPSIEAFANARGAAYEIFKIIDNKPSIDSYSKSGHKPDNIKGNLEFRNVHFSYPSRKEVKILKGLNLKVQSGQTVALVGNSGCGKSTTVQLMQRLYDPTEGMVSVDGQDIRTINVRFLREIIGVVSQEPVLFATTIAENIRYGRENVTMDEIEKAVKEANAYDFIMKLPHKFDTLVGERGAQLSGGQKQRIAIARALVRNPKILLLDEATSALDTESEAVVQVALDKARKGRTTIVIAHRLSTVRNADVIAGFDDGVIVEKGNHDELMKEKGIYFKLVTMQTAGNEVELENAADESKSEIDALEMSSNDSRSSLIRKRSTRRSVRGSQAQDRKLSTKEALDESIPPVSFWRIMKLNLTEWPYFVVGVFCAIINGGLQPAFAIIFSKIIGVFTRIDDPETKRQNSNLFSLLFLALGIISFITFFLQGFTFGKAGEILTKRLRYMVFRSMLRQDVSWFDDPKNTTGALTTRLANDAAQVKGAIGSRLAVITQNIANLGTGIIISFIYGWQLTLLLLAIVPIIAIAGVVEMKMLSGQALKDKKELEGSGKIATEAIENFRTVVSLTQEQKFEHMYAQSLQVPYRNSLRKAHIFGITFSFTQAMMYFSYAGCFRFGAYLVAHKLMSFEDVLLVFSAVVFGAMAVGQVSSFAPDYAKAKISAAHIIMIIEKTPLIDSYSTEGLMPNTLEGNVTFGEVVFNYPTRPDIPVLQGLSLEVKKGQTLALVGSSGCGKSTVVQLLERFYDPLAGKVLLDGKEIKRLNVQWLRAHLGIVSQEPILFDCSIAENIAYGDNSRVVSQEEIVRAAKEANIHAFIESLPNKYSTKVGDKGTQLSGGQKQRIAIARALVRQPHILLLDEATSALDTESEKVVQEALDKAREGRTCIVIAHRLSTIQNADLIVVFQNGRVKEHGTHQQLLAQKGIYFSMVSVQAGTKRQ

Question: For COc1cc2c(cc1OC)CN(CCc1ccc(NC(=O)c3cc(OC)c(OC)cc3NC(=O)c3cnc4ccccc4c3)cc1)CC2 [TARIQUIDAR], which Activity is on record?
Answer: inhibitor [+]
